The text below walks through data of ChEMBL document CHEMBL4316628, “Bioactivity-guided identification of flavonoids with cholinesterase and β-amyloid peptide aggregation inhibitory effects from the seeds of Millettia pachycarpa” (Bioorg Med Chem Lett, 2019).

The target in assay [1] is T1, Cholinesterase (Homo sapiens, UniProt P06276). Nature of the assay: Inhibition of BChE (unknown origin) using butyrylthiocholine iodide as substrate by spectrophotometry based Ellman's method. For orientation: In Ellman's method for cholinesterases, released thiocholine reacts with DTNB.
T1 sequence (P06276 whole entry): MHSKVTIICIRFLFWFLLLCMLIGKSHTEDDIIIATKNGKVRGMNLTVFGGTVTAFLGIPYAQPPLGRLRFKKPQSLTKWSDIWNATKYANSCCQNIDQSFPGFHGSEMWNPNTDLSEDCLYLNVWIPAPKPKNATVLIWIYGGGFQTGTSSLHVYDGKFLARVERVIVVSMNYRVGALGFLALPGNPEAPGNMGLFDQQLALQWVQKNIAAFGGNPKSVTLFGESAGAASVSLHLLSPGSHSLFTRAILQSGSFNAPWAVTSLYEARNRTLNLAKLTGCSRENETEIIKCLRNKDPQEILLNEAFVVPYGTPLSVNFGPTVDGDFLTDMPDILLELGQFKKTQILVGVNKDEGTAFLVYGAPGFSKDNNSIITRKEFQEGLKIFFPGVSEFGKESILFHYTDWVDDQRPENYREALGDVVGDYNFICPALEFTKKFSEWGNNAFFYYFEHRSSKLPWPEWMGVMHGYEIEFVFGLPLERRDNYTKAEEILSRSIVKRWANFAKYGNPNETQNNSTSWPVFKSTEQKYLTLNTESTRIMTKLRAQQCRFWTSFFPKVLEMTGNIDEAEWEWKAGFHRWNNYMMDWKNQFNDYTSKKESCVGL
Assay [2] deals with T2, Acetylcholinesterase (Homo sapiens, UniProt P22303). Nature of the assay: Inhibition of AChE (unknown origin) using acetylthiocholine iodide as substrate by spectrophotometry based Ellman's method.
T2 sequence (P22303 whole entry): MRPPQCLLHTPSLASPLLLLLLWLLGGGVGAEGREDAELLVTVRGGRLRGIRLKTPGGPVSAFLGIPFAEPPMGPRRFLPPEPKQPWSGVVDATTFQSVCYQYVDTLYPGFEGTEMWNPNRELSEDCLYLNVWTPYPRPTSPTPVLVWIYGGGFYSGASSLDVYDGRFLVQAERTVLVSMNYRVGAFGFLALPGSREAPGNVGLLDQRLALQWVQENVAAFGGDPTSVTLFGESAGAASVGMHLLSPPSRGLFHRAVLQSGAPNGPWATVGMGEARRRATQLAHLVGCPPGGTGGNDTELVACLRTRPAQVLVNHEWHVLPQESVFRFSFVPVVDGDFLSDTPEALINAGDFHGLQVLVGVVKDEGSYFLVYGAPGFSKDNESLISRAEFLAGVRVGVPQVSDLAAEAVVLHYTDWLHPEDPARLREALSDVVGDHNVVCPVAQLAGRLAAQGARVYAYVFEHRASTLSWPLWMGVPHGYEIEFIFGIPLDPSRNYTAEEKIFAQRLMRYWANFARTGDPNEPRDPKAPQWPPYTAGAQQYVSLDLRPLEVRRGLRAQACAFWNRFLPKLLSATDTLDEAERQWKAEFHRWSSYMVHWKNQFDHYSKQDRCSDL
The target of assay [3] is T1, Cholinesterase. The experiment in a line: Inhibition of BChE (unknown origin) at 20 ug/mL using butyrylthiocholine iodide as substrate by spectrophotometry based Ellman's method.
For assay [4], the target named is T1, Cholinesterase. The note with it: 100 ug/mL.
Description: Inhibition of BChE (unknown origin) at 100 ug/mL using butyrylthiocholine iodide as substrate by spectrophotometry based Ellman's method
Assay [5] concerns the target T2, Acetylcholinesterase. The experiment in a line: Competitive type inhibition of AChE (unknown origin) using acetylthiocholine iodide as substrate by Ellman's method based Lineweaver-Burk plot analysis.
Assay [6] has as its target Amyloid-beta precursor protein (Homo sapiens) (UniProt P05067). Nature of the assay: Inhibition of amyloid beta (1 to 42) (unknown origin) self-aggregation at 80 uM incubated for 48 hrs by thioflavin-T fluorescence method.
In assay [7] the target is T1, Cholinesterase. Nature of the assay: Mixed type inhibition of BChE (unknown origin) using butyrylthiocholine iodide as substrate by Ellman's method based Lineweaver-Burk plot analysis.
For assay [8], the target named is T2, Acetylcholinesterase. Nature of the assay: Binding affinity to AChE (unknown origin) assessed as reduction in intrinsic protein fluorescence at 25 degC by fluorescence spectrophotometry.
Assay [9] has as its target Beta-secretase 1 (Homo sapiens, UniProt P56817). Nature of the assay: Inhibition of BACE1 (unknown origin) expressed in baculovirus-expression system using Rh-EVNLDAEFK-Quencher substrate by FRET assay.
Assay [10] addresses Amyloid-beta precursor protein (Homo sapiens) (UniProt P05067). Nature of the assay: Inhibition of amyloid beta (1 to 42) (unknown origin) self-aggregation at 20 uM incubated for 48 hrs by thioflavin-T fluorescence method.
The target of assay [11] is T1, Cholinesterase. Nature of the assay: Binding affinity to BChE (unknown origin) assessed as reduction in intrinsic protein fluorescence at 25 degC by fluorescence spectrophotometry.
For assay [12], the target named is Amyloid-beta precursor protein (Homo sapiens) (UniProt P05067). Nature of the assay: Inhibition of amyloid beta (1 to 42) (unknown origin) self-aggregation incubated for 48 hrs by thioflavin-T fluorescence method.
Sequence of Amyloid-beta precursor protein (Homo sapiens) (P05067 whole entry): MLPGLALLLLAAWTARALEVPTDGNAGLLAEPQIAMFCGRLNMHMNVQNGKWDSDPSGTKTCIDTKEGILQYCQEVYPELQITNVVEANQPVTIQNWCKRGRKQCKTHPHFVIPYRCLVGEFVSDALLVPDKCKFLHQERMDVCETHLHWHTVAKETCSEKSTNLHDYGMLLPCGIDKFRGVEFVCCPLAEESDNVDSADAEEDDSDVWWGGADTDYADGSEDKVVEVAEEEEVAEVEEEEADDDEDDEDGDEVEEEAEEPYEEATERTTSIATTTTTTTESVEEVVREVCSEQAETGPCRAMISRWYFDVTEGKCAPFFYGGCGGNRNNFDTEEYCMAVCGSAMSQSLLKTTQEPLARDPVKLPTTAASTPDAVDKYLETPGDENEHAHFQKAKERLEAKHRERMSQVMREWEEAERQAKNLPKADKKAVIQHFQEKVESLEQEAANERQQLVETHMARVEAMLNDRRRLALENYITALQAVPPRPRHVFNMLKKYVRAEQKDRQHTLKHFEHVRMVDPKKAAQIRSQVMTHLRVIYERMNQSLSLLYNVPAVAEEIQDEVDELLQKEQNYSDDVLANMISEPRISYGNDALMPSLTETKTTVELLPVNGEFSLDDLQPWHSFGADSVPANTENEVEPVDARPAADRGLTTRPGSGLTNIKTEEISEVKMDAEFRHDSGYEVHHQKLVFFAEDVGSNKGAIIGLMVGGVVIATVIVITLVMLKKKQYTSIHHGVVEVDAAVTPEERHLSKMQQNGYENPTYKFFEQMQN
For assay [13] the target is unchanged. Nature of the assay: Inhibition of amyloid beta (1 to 42) (unknown origin) self-aggregation at 40 uM incubated for 48 hrs by thioflavin-T fluorescence method.

Structures are written as SMILES. Activity calls are given as the source filed them. No cut-off for these calls is given here.

Sequence of Beta-secretase 1 (P56817 whole entry): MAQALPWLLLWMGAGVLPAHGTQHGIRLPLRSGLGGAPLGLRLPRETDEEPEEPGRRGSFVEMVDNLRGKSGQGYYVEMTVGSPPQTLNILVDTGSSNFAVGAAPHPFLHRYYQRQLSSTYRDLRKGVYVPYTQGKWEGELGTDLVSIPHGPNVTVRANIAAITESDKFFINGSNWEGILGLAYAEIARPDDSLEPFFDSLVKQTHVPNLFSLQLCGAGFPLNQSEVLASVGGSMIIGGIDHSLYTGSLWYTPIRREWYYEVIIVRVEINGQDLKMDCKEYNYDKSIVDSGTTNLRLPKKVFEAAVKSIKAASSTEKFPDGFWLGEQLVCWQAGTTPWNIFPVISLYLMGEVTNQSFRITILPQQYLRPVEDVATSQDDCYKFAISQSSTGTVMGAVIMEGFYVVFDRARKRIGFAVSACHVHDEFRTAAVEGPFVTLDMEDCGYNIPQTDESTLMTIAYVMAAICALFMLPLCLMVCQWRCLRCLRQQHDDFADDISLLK

Consider `COc1cc2c(cc1OC)[C@@H]1C(=O)c3ccc4c(c3O[C@@H]1CO2)C=CC(C)(C)O4` [DEGUELIN], for which the IC50 (in general, the concentration needed to halve the response being measured) in assay [1] is “Not Active”; in assay [2] (read-out: IC50), 127 µM. Besides, the inhibition (commonly the share of the control response that was lost under treatment) in assay [3] turned out to be 14.2%.
For the molecule `COc1ccc2c3c1O[C@H]1C[C@@H](O)C=C[C@@]31CCN(C)C2`, the inhibition in [4] and in assay [3] was 94.6% each time.
For the molecule `CC1(C)C=Cc2c(ccc(C(=O)/C=C/c3ccc(O)cc3)c2O)O1`, the values for the Ki in assay [5] and in assay [7] were 7.39 µM and 3.48 µM, respectively. For the same molecule, the IC50 in assay [1] (read-out: IC50) is 5.68 µM; in assay [2] (read-out: IC50), 17.1 µM; in [8], 29.6 µM; in assay [9] it was 9.8 µM; in assay [11], 2.57 µM. For the same molecule, the inhibition was 73.3% in assay [6]; 86.5% in assay [3]; 53.7% in assay [10]; “Dose-dependent effect” in assay [12]; 65.7% in assay [13]. For the same molecule, the Activity result in assay [8] and in assay [11] was “Dose-dependent effect” in each case.
As to `CC1(C)C=Cc2c(ccc3c2OC(c2ccc(O)cc2)CC3=O)O1` (centres undefined), the IC50 is 11.5 µM in [1] (read-out: IC50), “Not Active” in [2] and 3.57 µM in assay [11]. Also, the inhibition in assay [6] is 73.5%; in assay [3], 91.9%; in [10], 50.9%; in [13], 63.5%. Moreover, in assay [7], the Ki (as a rule, a dissociation constant, usually derived from enzyme kinetics or from competition with a known ligand) was determined as 3.73 µM.
In the case of `COc1ccc(/C=C/C(=O)c2ccc3c(c2O)C=CC(C)(C)O3)cc1`, the IC50 in assay [1] (read-out: IC50) was determined as 102 µM; in assay [2] (read-out: IC50) it was 74.7 µM. This molecule also came in with an inhibition in [3] of 37%.
Turning to `COc1cc(/C=C/C(=O)CC(=O)/C=C/c2ccc(O)c(OC)c2)ccc1O`, the inhibition entry in assay [6], in [10] and in assay [13] was “Active” in each case.
Take `COc1cc(OC)c(-c2coc3c4c(ccc3c2=O)OC(C)(C)C=C4)cc1OC`: the IC50 is 21.8 µM in [1] (read-out: IC50) and 122 µM in assay [2] (read-out: IC50). Also, the inhibition entry in assay [6], in assay [10] and in assay [13] was “inactive” each time. The molecule also registered an inhibition in [3] of 68.5%.
In the case of `COc1ccc(C2CC(=O)c3ccc4c(c3O2)C=CC(C)(C)O4)cc1` (centres undefined), the IC50 turned out to be 225 µM in assay [1] (read-out: IC50) and 91.1 µM in assay [2] (read-out: IC50). In [3], the inhibition came out at 24.7%.
As to `COc1cc2c(cc1OC)[C@]1(O)C(=O)c3ccc4c(c3O[C@@H]1CO2)C=CC(C)(C)O4` [TEPHROSIN], the IC50 result in [1] was “Not Active”; in assay [2] (read-out: IC50) it was 127 µM. The same molecule returned an inhibition in [3] of 16.2%.
As for `C=C(C)[C@H]1Cc2c(ccc3c2O[C@@H]2COc4cc(OC)c(OC)cc4[C@]2(O)C3=O)O1` [ROTENOLONE], the concentration for half-maximal inhibition (IC50) result in assay [1] and in assay [2] was “Not Active” throughout. For the same molecule, the inhibition in assay [3] amounted to 9.87%.
On to `COC1=CC(=O)C(OC)(OC)C=C1[C@@]1(O)C(=O)c2ccc3c(c2O[C@@H]1CO)C=CC(C)(C)O3`, for which the IC50 result in assay [1] and in assay [2] was “Not Active” in each case. This molecule registered an inhibition in assay [3] of 17.1%.
On to `COc1ccc(-c2coc3c4c(ccc3c2=O)OC(C)(C)C=C4)cc1OC`, for which the values for the IC50 in [1] (read-out: IC50), in assay [2] (read-out: IC50) and in assay [11] were 2.34 µM, 131 µM and 7.82 µM, respectively. Also, the inhibition entry in assay [6], in assay [10] and in assay [13] was “inactive” each time. For the same molecule, the Ki in assay [7] turned out to be 0.92 µM. Moreover, in assay [3], the inhibition was 98.2%.
